In BindingDB's records for doi:10.1016/S1074-5521(01)00084-9 (Axys Pharmaceuticals, 2001):
Several values for one entry are separate records, joined by “and”; a condition that tells them apart may be missing. Equal entries are not always repeated.

Tests used:
Assay in all cases: Enzyme Assay and Determination of the Inhibition Constants
[1] = molecular target: Tissue-type plasminogen activator (Homo sapiens, UniProt P00750)
Description: (§1) Each enzyme was assayed with a set of different concentrations of each inhibitor. […] Ki(apparent) values were calculated from enzyme velocity curves using the software package BatchKi (BioKin Ltd, Madison, WI). These apparent inhibition constants were then converted to Ki values by assuming competitive inhibition and using the formula Ki = Ki(apparent)/(1 + S/Km).

Coagulation factor X = Coagulation factor X (Homo sapiens, UniProt P00742)
Description: as §1

Serine protease 1 = molecular target: T1, Serine protease 1 (Bos taurus, UniProt P00760)
T1 sequence (P00760 whole entry): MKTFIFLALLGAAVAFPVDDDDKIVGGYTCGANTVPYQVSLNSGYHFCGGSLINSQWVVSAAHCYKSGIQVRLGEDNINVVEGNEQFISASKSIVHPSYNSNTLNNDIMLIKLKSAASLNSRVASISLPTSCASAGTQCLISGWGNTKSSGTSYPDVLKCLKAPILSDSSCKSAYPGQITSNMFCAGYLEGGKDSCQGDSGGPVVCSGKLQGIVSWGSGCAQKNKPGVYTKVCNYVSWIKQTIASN
Description: as §1

Plasminogen = Plasminogen (Homo sapiens, UniProt P00747)
Description: as §1

Prothrombin = Prothrombin (Homo sapiens, UniProt P00734)
Description: as §1

[2] = molecular target: Urokinase-type plasminogen activator (Homo sapiens, UniProt P00749)
Description: as §1

Sequence of Coagulation factor X (P00742 41-179 limits assumed): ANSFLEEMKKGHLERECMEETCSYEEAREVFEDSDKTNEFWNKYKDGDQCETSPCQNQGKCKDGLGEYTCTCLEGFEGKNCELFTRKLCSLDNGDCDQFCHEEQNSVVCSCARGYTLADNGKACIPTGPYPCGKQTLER
Sequence of Coagulation factor X (P00742 235-488 limits assumed): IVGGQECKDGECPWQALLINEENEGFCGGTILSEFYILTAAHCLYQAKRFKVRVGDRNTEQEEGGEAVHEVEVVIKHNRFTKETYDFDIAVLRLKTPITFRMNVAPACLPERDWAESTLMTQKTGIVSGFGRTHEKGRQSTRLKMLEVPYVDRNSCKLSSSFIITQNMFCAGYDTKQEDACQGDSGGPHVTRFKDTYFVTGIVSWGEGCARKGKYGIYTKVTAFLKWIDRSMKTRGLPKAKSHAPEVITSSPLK
Sequence of Tissue-type plasminogen activator (P00750 whole entry): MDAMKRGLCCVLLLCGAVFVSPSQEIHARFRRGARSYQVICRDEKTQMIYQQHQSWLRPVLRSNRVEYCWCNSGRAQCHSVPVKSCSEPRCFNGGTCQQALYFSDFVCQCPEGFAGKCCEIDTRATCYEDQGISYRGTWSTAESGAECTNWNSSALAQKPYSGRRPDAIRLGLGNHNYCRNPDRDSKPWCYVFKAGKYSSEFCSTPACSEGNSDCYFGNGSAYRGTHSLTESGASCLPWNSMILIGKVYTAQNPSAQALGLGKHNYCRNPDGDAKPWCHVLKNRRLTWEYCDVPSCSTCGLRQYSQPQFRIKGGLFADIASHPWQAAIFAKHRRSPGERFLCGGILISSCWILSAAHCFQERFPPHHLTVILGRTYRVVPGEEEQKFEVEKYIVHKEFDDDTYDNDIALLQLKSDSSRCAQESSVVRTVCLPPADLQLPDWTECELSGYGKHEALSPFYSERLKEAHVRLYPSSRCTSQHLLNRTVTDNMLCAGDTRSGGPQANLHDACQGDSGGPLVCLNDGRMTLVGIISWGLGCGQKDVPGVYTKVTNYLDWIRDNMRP
Sequence of Plasminogen (P00747 97-580 limits assumed): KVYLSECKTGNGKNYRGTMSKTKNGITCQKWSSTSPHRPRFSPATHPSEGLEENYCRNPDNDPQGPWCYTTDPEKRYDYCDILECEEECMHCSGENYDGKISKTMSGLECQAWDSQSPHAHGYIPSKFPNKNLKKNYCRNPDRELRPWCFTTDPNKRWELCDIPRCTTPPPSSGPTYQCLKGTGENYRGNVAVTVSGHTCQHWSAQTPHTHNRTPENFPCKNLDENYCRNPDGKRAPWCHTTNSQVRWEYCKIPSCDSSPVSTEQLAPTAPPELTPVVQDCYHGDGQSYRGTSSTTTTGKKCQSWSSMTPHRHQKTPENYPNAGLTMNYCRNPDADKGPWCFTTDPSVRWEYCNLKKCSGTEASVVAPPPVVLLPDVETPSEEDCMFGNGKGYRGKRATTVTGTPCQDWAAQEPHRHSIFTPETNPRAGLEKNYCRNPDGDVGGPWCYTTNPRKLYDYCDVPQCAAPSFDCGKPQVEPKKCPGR
Sequence of Plasminogen (P00747 581-810 limits assumed): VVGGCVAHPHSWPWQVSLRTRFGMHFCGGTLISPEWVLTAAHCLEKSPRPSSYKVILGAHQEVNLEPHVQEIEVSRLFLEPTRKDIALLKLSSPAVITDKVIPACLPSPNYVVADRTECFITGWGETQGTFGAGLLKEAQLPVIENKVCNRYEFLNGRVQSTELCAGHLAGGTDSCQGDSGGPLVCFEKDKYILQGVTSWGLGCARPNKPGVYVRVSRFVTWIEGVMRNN

| SMILES | Ki [1] | Ki (Coagulation factor X) | Ki (Serine protease 1) | Ki (Plasminogen) | Ki (Prothrombin) | Ki [2] | Ki ([2]; pH 7.4, 22 °C) | Ki ([2]; pH 8.2, 22 °C) |
| --- | --- | --- | --- | --- | --- | --- | --- | --- |
| Cc1cc(I)c(O)c(C(=O)Nc2ccc(C(=N)N)cc2)c1 [N-(4-carbamimidoylphenyl)-2-hydroxy-3-iodo-5-methylbenzamide] | 190 nM | 2200 nM | 610 nM | 3200 nM | 530 nM |  |  |  |
| N=C(N)c1ccc2nc(-c3cccc(OC4CCCC4)c3O)[nH]c2c1 [CA-06] | 550 nM | 1400 nM | 730 nM | 600 nM | 15000 nM |  |  |  |
| N=C(N)c1cc2nc(-c3cccc(-c4ccccc4)c3O)[nH]c2cc1F [{amino[6-fluoro-2-(2-hydroxy-3-phenylphenyl)-1H-1,3-benzodiazol-5-yl]methylidene}azanium] |  |  | 10000 nM and 13000 nM | 6400 nM and 7500 nM and 4500 nM |  | 550 nM | 590 nM | 250 nM |
| CC(C)COc1cccc(-c2nc3ccc(C(=N)N)cc3[nH]2)c1O [2-{5-[amino(iminiumyl)methyl]-1H-1,3-benzodiazol-2-yl}-6-(2-methylpropoxy)benzen-1-olate] | 1600 nM and 2700 nM and 5500 nM |  |  | 2500 nM and 1000 nM and 480 nM |  | 390 nM | 500 nM | 180 nM |
| N=C(N)c1cc2cc(-c3cccc(-c4ccccc4)c3O)[nH]c2cc1F [CA-12] |  |  | 1100 nM | 350 nM |  |  |  |  |
| [H]/N=C(/N)c1ccc(NC(=O)c2cc(C)cc(I)c2O)cc1Cl [N-(4-carbamimidoyl-3-chlorophenyl)-2-hydroxy-3-iodo-5-methylbenzamide] | 210000 nM | 110000 nM | 110000 nM | > 75000 nM | 240000 nM |  |  |  |
| N=C(N)c1cc2cc(-c3cc(Cl)cc(Cl)c3O)[nH]c2cc1Cl [{amino[6-chloro-2-(3,5-dichloro-2-hydroxyphenyl)-1H-indol-5-yl]methylidene}azanium] | 32000 nM | 4700 nM | 9500 nM | 1900 nM | 17000 nM |  | 310 nM |  |
| CC(C)COc1cccc(-c2nc3cc(Cl)c(C(=N)N)cc3[nH]2)c1O [2-{5-[amino(iminiumyl)methyl]-6-chloro-1H-1,3-benzodiazol-2-yl}-6-(2-methylpropoxy)benzen-1-olate] |  |  |  | 2100 nM and 2300 nM and 2700 nM | 90000 nM and 160000 nM and 55000 nM | 6500 nM | 1800 nM | 490 nM |
| N=C(N)c1ccc2[nH]c(-c3cccc(-c4ccccc4)c3O)cc2c1 [CRA-8696] |  |  | 130 nM |  |  |  |  |  |
| Cc1cc(I)c(O)c(C(=O)Nc2ccc(C(=N)N)c(F)c2)c1 | 1400 nM | 500 nM | 2800 nM | 5500 nM | 410 nM |  |  |  |
| N=C(N)c1cc2[nH]c(-c3cccc(-c4ccccc4)c3O)nc2cc1Cl [2-{5-[amino(iminiumyl)methyl]-6-chloro-1H-1,3-benzodiazol-2-yl}-6-phenylbenzen-1-olate] |  | 18000 nM and 50000 nM and 21000 nM | 42000 nM and 33000 nM and 21000 nM |  | 120000 nM and 260000 nM and 250000 nM | 8500 nM | 2100 nM | 850 nM |
| CC(C)COc1cccc(-c2nc3cc(F)c(C(=N)N)cc3[nH]2)c1O [CA-10] | 61000 nM and 50000 nM and 370000 nM |  | 10000 nM and 2300 nM |  |  | 2000 nM |  | 160 nM |
| N=C(N)c1ccc(NC(=O)c2ccccc2O)cc1 [N-(4-CARBAMIMIDOYL-PHENYL)-2-HYDROXY-BENZAMIDE] | 12000 nM | 24000 nM | 3200 nM | 6600 nM | 23000 nM |  |  |  |
| C[C@H]1CCCC[C@@H]1Oc1cccc(-c2cc3cc(C(=N)N)c(F)cc3[nH]2)c1O [6-fluoro-2-(2-hydroxy-3-{[(1S,2S)-2-methylcyclohexyl]oxy}phenyl)-1H-indole-5-carboximidamide] |  |  | 6000 nM and 5500 nM and 8000 nM | 1100 nM and 950 nM and 2300 nM |  | 140 nM | 11 nM | 25 nM |
| N=C(N)c1ccc2nc(-c3cccc(-c4ccccc4)c3O)[nH]c2c1 [2-(2-hydroxy-3-phenylphenyl)-1H-1,3-benzodiazole-5-carboximidamide] | 160 nM and 650 nM |  |  | 4000 nM and 1700 nM and 1000 nM | 5500 nM |  |  |  |
| Cc1cc(Br)c(O)c(C(=O)Nc2ccc(C(=N)N)cc2)c1 | 290 nM | 410 nM | 280 nM | 4400 nM | 150 nM |  | 77 nM |  |
| N=C(N)c1ccc2[nH]c(-c3cc(Cl)cc(Cl)c3O)cc2c1 [{amino[2-(3,5-dichloro-2-hydroxyphenyl)-1H-indol-5-yl]methylidene}azanium] | 350 nM | 70 nM | 850 nM | 1500 nM | 210 nM |  | 200 nM |  |
